In patent US11096917B2, “Composition for preventing or treating muscle diseases, comprising suberic acid or pharmaceutically acceptable salt thereof as active ingredient” (INDUSTRY-ACADEMIC COOPERATION FOUNDATION, YONSEI UNIVERSITY, priority 2017, dated 2021):

Experiments:
C57BL/6N mice [1] = assay: H&E staining of muscle tissue, fiber diameter, in high-fat diet mice; type: in vivo, mouse; conditions: 0.2% suberic acid in high fat diet, 10 weeks, vs high-fat diet mice
From the text: (§1) Twenty-four 5-week-old male C57BL/6N mice (Mating, Korea) were adapted to laboratory circumstances for a week while feeding a commercially available normal diet (rodent chow), and then assigned into three groups (a Chow group, a HFD group, and a suberic acid-treated group; n=8 mice per group) according to a randomized block design, and bred for 10 weeks. An obesity-inducing diet used in this experiment was a high fat diet (HFD: 40% fat calories, 17 g of lard+3% corn oil/100 g of diet), and a suberic acid-supplemented high fat diet (Suberic Acid) had the same compositions as the HFD, provided that the suberic acid-supplemented high fat diet included 0.2% suberic acid (Table 2). A normal diet group (Chow) took a commercially available rodent chow. The suberic acid was purchased from Sigma-Aldrich Corp.
A muscle tissue was extracted from a mouse, immobilized with 10% formalin, stained with a Hematoxylin and Eosin (H&E) stain, and then submitted to the Korea CFC (Gyeonggi-do, Korea). […]
The statistical analysis of all data was carried out using a statistical package for the social sciences (SPSS version 21.0, IBM, Armonk, N.Y., USA) PC package. In this case, the analyzed numerical values are expressed as the mean±SEM, and a significant difference between the groups was verified using ANOVA.

p-4E-BP1 = assay: Western blotting of p-4E-BP1 in dexamethasone-treated myotubes; type: cell-based, mouse; conditions: 100 μM suberic acid + 50 μM dexamethasone, 2 days, vs dexamethasone alone; FIG. 2A
Protocol: (§2) A mouse myoblast cell line (C2C12 cells) was purchased from the American Type Culture Collection (ATCC, Manassas, Va., USA), and the purchased cells were cultured at 37° C. in a 5% CO2 incubator using a 10% fetal bovine serum medium (Gibco-BRL). When the cultured cells reached 80% confluence, the cells were differentiated into myotubes using a 2% horse serum medium (Gibco-BRL).
(§3) From the fourth day of differentiation, the cells were treated with 50 μM dexamethasone (dexa; Sigma) and 100 μM suberic acid (CAS Number 505-48-6, Sigma) for 2 days.
(§4) The cells were treated with 50 μM dexamethasone (dexa; Sigma) in the same manner as in Example 1.
(§5) To perform Western blotting in the cells, 500 μL of a lysis buffer, which included 100 mM Tris-HCl (pH 7.4), 5 mM EDTA, 50 mM sodium pyrophosphate, 50 mM NaF, 100 mM orthovanadate, 1% Triton X-100, 1 mM phenylmethanesulfonyl fluoride, 2 μg/mL aprotinin, 1 μg/mL pepstatin A, and 1 μg/mL leupeptin, was added to each well from which a medium was removed, and the cell suspension was harvested, and then centrifuged at 4° C. and 1,300×g for 20 minutes. Thereafter, the middle layer was taken, and proteins were quantified according to the Bradford method (Bio-Rad). […] The bands visualized on the X-ray film were scanned, and then quantified using Quantity One analysis software (Bio-Rad).

MaFbx/atrogin-1 = assay: RT-PCR of MaFbx/atrogin-1 gene expression in dexamethasone-treated myotubes; type: cell-based, mouse; conditions: 100 μM suberic acid + 50 μM dexamethasone, 2 days, vs dexamethasone alone; FIG. 2B
Protocol: as §2, §3, §4
(§6) 1×10^7 mouse myoblast cells were added to 334 μL of a TRIzol solution, and pulverized. Thereafter, the resulting cell solution was centrifuged at 4° C. and 12,000× g for 10 minutes. The supernatant was transferred to a new tube, and 67 μL of chloroform was added thereto, and vortexed. The supernatant was again transferred to a new tube, and isopropanol was added so that a ratio of the supernatant and isopropanol was 1:1. […] A concentration of the extracted RNA sample was measured at wavelengths of 260 nm and 280 nm using a UV/VIS spectrophotometer (Beckman coulter, DU730), and the integrity of the RNA sample was determined by means of agarose gel electrophoresis. […]

C57BL/6N mice [2] = assay: Grip strength test in high-fat diet-induced muscle loss mice; type: in vivo, mouse; conditions: 0.2% suberic acid in high fat diet, 10 weeks, force (N) per weight (kg), vs high-fat diet mice; FIG. 3 (B)
From the text: as §1
To measure grip strength of the mice, at 10 weeks of breeding, the grip strength of the mice was measured using four limbs. A force (N) generated by a mouse gripping a wire grid was measured a total of five times using a grip strength meter (Daejong Instrument Industry Co., Ltd., Korea) equipped with a wire grid (20×10 cm), and an at least one-minute break between every measurement was provided. The experimental results were calculated by dividing the measured force (N) by the weight (kg) of the mouse. […]

p-p70S6K1 = assay: Western blotting of p-p70S6K1 in dexamethasone-treated myotubes; type: cell-based, mouse; conditions: 100 μM suberic acid + 50 μM dexamethasone, 2 days, vs dexamethasone alone; FIG. 2A
Protocol: as §2, §3, §4, §5

MuRF1 = assay: RT-PCR of MuRF1 gene expression in dexamethasone-treated myotubes; type: cell-based, mouse; conditions: 100 μM suberic acid + 50 μM dexamethasone, 2 days, vs dexamethasone alone; FIG. 2B
Protocol: as §2, §3, §4, §6

[3] = system: mouse myoblast cell line (C2C12 cells); assay: Giemsa-Wright staining; thickness, length and fusion index of myotubes reduced by dexamethasone; type: cell-based; conditions: 100 μM suberic acid + 50 μM dexamethasone, 2 days, vs dexamethasone alone
Protocol: as §2, §3, §4
The myotubes prepared in Example 1 were washed twice with phosphate-buffered saline (PBS), and then immobilized with 100% methanol for 10 minutes. When the immobilization was completed, the myotubes were air-dried at room temperature for 10 minutes, and then stained for 30 minutes by dropwise addition of a Giemsa-Wright staining solution (ASAN Pharmaceutical Co., Ltd., Seoul) which is used to specifically stain myotubes.
The myotubes thus stained were photographed at 100× and 40× magnifications using a fluorescence microscope (IX 71, Olympus), and then analyzed using Image J software (USA). Six regions in each well were randomly selected and photographed using a microscope. The thicknesses, lengths and fusion indexes of at least 100 myoblast cells in each well were analyzed (in triplicate/group).

`O=C(O)CCCCCCC(=O)O` [suberic acid] was tested, and the “increase in fiber diameter of the rectus femoris” value (C57BL/6N mice [1]; FIG. 4 (A)) was 10%, the “increase in fiber diameter of the soleus” value (C57BL/6N mice [1]; FIG. 4 (B)) was 15% and the “amount of p-4E-BP1 protein” value (p-4E-BP1) was “significantly increased again”. The “expression of MaFbx/atrogin-1” value (MaFbx/atrogin-1) was “significantly decreased”, the “increase in grip strength of the mice” value (C57BL/6N mice [2]) was “approximately 21%” and the “amount of p-p70S6K protein” value (p-p70S6K1) was “significantly increased again”. The “expression of MuRF1” value (MuRF1) was “significantly decreased”, the “increase in thickness (diameter) of the myotubes” value ([3]; FIG. 1B) was 58% and the “increase in fusion index of the myotubes” value ([3]; FIG. 1C) was 53%. The “increase in length of the myotubes” value ([3]; FIG. 1D) was 100%.
